Data set [1] has as its system mouse. The data set can be described thus: exploratory light/dark test procedure (anxiolytic activity). It counts as in vivo. As to the method:
Anxiolytic activity also was evaluated in vivo in an exploratory […] test procedure [Young et al., Soc. Neurosci. Abs. 14,207 (1988) and Costall et al., Brit. J. Pharmacol. 93,985 (1988)]. Briefly, test compound was administered to a mouse which was placed in a two compartment light-dark activity monitoring box. Control animals typically move to the dark side of the box to avoid the bright light. Animals treated with anxiolytic agents spend more time exploring the lit side of the box than control animals. […]
The following table summarizes the results of representative compounds of this invention in the light/dark exploratory test procedure for anxiolytic activity. Compounds were compared with diazepam as a reference standard at each dose level.

The subject of data set [2] is mouse. The data set can be described thus: loss of righting reflex test procedure (ataxia). The format is in vivo. As to the method:
Compounds with anticonvulsant activity typically cause ataxia, an undesirable side effect, at some dose. Representative compounds of this invention were evaluated in a loss of righting reflex test procedure [A. P. Roszkowski, J. Pharmacol. Exp. Ther. 129, 75-81 (1960)]. Briefly, the compound to be evaluated was administered to a mouse which was then placed upside down in its cage. Failure to right itself within 20 seconds was considered to be loss of the righting reflex. Results are expressed as percent of mice losing righting reflex at a given dose.

Another data set addresses benzodiazepine receptor. The data set can be described thus: inhibition of [^3 H]-flunitrazepam binding to the benzodiazepine receptor. As to the method: Anxiolytic activity was evaluated in vitro according to the method of Chiu et al. [Mol. Pharmacol. 21, 57 (1982)] by determining the IC50 for the inhibition of [^3 H]-flunitrazepam binding to the benzodiazepine receptor.
*Inhibition of [^3 Hflunitroazepam binding to the benzodiazepine

Data set [3] has as its system adult female mice. The data set can be described thus: MES, maximal electroshock test (electrically induced seizures). It counts as in vivo. The conditions noted are these: Mus musculus; for responders at 100 mg/kg / responders at 31.6 mg/kg: read-out: MES (% protection). As to the method: (§1) Briefly, test compound was administered to adult female mice, followed by either electrical (60 Hz, 5 msec. pulse width […] intensity for 0.2 seconds) or chemical [Metrazole® (pentylenetetrazol)] challenge. […] Results are expressed either as percent protection at a given dose or as the ED50 for protection.
**MES = Maximal electroshock test; results given as % protection at a
given dose (mg/kg) or ED50 (mg/kg).
(The maximal electroshock test induces tonic seizures with an electrical stimulus.)

Data set [4] deals with adult female mice. The data set can be described thus: SC-MET, subcutaneous Metrazole (pentylenetetrazol) test (chemically induced seizures). It counts as in vivo. The conditions noted are these: for ED50: Mus musculus, sc, ED50 for protection. As to the method: as §1
^+ SCMET = subcutaneous Metrazole ® test; results given as %
protection at a given dose (mg/kg) or ED50 (mg/kg).

[5] abbreviates: [^3 H]-flunitrazepam, in vitro, read-out: ^3 H-Flu binding IC50.

Each structure is given as a SMILES string. Several values for one entry are separate records, joined by “and”; a condition that tells them apart may be missing. Equal values may be shown once. Read-outs that look alike come from different tables or passages of the source.

What is called IC50 is the midpoint of a concentration-inhibition curve. For orientation: ED50 means the dose at which the effect has come halfway, by size or by number of responders.

For `CN1C(=O)CN=C(c2ccccc2)c2cc(Cl)ccc21` [Diazepam, diazepam, reference compound], the “% of Time in Lit Area, Diazepam” value in the data set with mouse [1] (diazepam reference, row of dose 0.01 mg/kg) is 27%; in the data set with mouse [1] (diazepam reference, row of dose 0.1 mg/kg) it was 27%; with mouse [1] (diazepam reference, row of dose 1.0 mg/kg, 1 mg/kg), 28% and 26%; with mouse [1] (diazepam reference, row of dose 3.16 mg/kg, 3.16 mg/kg) it was 26% and 27% and 28%; in the data set with mouse [1] (diazepam reference, row of dose 5.62 mg/kg), 27%; with mouse [1] (diazepam reference, row of dose 10.0 mg/kg, 10 mg/kg), 26% and 28%. The “% of Time in Lit Area, Diazepam” value with mouse [1] (diazepam reference, row of dose 31.6 mg/kg, 31.6 mg/kg) is 28% and 26%. Further, the “sedation, Diazepam” value in the data set with mouse [1] (diazepam reference, row of dose 17.8 mg/kg) is “sedation”. For the same molecule, the “% of Time in Lit Area, Diazepam (additional result)” value in the data set on mouse [1] (dose of 10 mg/kg, additional result in footnote) was 28%.
Turning to `Clc1ccc(-c2nc3cccnc3n2Cc2ccccn2)cc1` [Example 1, 2-(4-Chlorophenyl)-3-(2-pyridinylmethyl)-3H-imidazo[4,5-b]pyridine], the “% Loss of Righting Reflex” value in the data set on mouse [2] (dose 100 mg/kg) stood at 0%. In addition, at benzodiazepine receptor (setting [5]), the IC50 worked out at 7000 nM. In addition, the responders at 100 mg/kg in the data set with adult female mice [3] is 0%. The “SC-MET (% protection)” value with adult female mice [4] (dose 100 mg/kg) is 37.5%.
Regarding `Cc1ccc(-c2nc3cccnc3n2Cc2ccccn2)cc1` [Example 2, 2-(4-Methylphenyl)-3-(2-pyridinylmethyl)-3H-imidazo[4,5-b]pyridine], the “% Loss of Righting Reflex” value in the data set with mouse [2] (dose 100 mg/kg) was 0%. Also, at benzodiazepine receptor (setting [5]), the IC50 was 3100 nM. Further, the responders at 100 mg/kg in the data set with adult female mice [3] came out at 25%. Moreover, it took a dose of 48.7 mg/kg to reach the 50% effect level in the data set with adult female mice [4] (ED50).
`Clc1ccc(-c2nc3ccc(Cl)nc3n2Cc2ccccn2)cc1` [Example 3, 5-Chloro-2-(4-chlorophenyl)-3-(2-pyridinylmethyl)-3H-imidazo[4,5-b]pyridine]: in the data set with mouse [2] (dose 100 mg/kg), the “% Loss of Righting Reflex” value is recorded as 0%. For the same molecule, the IC50 at benzodiazepine receptor (setting [5]) is 3300 nM. The responders at 100 mg/kg in the data set with adult female mice [3] came out at 0%. Besides, the “SC-MET (% protection)” value in the data set on adult female mice [4] (dose 100 mg/kg) worked out at 62.5%.
For the molecule `Cc1ccc(-c2nc3ccc(Cl)nc3n2Cc2ccccn2)cc1` [Example 4, 5-Chloro-2-(4-methylphenyl)-3-(2-pyridinylmethyl)-3H-imidazo[4,5-b]pyridine], in the data set on mouse [2] (dose 100 mg/kg), the “% Loss of Righting Reflex” value worked out at 0%. At benzodiazepine receptor (setting [5]), the IC50 came to 1600 nM. For the same molecule, the 50% effect level in the data set on adult female mice [4] (ED50) was put at a dose of 38.8 mg/kg.
For the molecule `Cc1ccc(-c2nc3ccc(Cl)nc3n2Cc2ncc[nH]2)cc1` [Example 5, 5-Chloro-3-(1H-imidazol-2-ylmethyl)-2-(4-methylphenyl)-3H-imidazo[4,5-b]pyridine], in the data set on mouse [2] (dose 100 mg/kg), the “% Loss of Righting Reflex” value is listed as 0%. Further, on benzodiazepine receptor (setting [5]), the IC50 amounted to 300 nM. In addition, in the data set on adult female mice [3], the responders at 100 mg/kg amounted to 0%. The same molecule came in with an ED50 with adult female mice [4] of 6.92 mg/kg.
In the case of `Cc1ccc(-c2nc3ccc(C)nc3n2Cc2ccccn2)cc1` [Example 6, 5-Methyl-2-(4-methylphenyl)-3-(2-pyridinylmethyl)-3H-imidazo[4,5-b]pyridine], the “% Loss of Righting Reflex” value in the data set with mouse [2] (dose 100 mg/kg) was 0%. For the same molecule, the IC50 at benzodiazepine receptor (setting [5]) stood at 3900 nM. Moreover, the “% of Time in Lit Area, Compound” value is reported as 36% in the data set with mouse [1] (dose 3.16 mg/kg) and 38% with mouse [1] (dose 10.0 mg/kg). Further, in the data set with adult female mice [3], the responders at 100 mg/kg worked out at 12.5%. The ED50 in the data set on adult female mice [4] was 38.1 mg/kg.
As for `Cc1ccc2nc(-c3ccc(Cl)cc3)n(Cc3ccccn3)c2n1` [Example 7, 2-(4-Chlorophenyl)-5-methyl-3-(2-pyridinylmethyl)-3H-imidazo[4,5-b]pyridine], the “% Loss of Righting Reflex” value in the data set with mouse [2] (dose 100 mg/kg) came out at 62.5%. The IC50 on benzodiazepine receptor (setting [5]) is 7300 nM. Also, the values for the ED50 with adult female mice [3] (ED50 for protection) and with adult female mice [4] were 76 mg/kg and 29.4 mg/kg, respectively.
Consider `Clc1ccc(-c2nc3cccnc3n2Cc2ncc[nH]2)cc1` [Example 8, 2-(4-Chlorophenyl)-3-(1H-imidazol-2-ylmethyl)-3H-imidazo[4,5-b]pyridine], for which the “% Loss of Righting Reflex” value with mouse [2] (dose 31.6 mg/kg) is given as 0%. For the same molecule, the IC50 on benzodiazepine receptor (setting [5]) is 410 nM. For the same molecule, the responders at 31.6 mg/kg with adult female mice [3] stood at 0%. Moreover, the “SC-MET (% protection)” value in the data set on adult female mice [4] (dose 31.6 mg/kg) worked out at 0%.
Turning to `Cc1ccc(-c2nc3cccnc3n2Cc2ncc[nH]2)cc1` [Example 9, 3-(1H-Imidazol-2-ylmethyl)-2-(4-methylphenyl)-3H-imidazo[4,5-b]pyridine], the IC50 at benzodiazepine receptor (setting [5]) is 140 nM. Further, the responders at 31.6 mg/kg in the data set on adult female mice [3] was determined as 0%. Further, it took a dose of 15.4 mg/kg to reach the 50% effect level in the data set on adult female mice [4] (ED50).
On to `Clc1ccc(-c2nc3ccc(Cl)nc3n2Cc2ncc[nH]2)cc1` [Example 10, 5-Chloro-2-(4-chlorophenyl)-3-(1H-imidazol-2-ylmethyl)-3H-imidazo[4,5-b]pyridine], for which, in the data set on mouse [2] (dose 100 mg/kg), the “% Loss of Righting Reflex” value was found to be 0%. Also, the IC50 is 130 nM at benzodiazepine receptor (setting [5]) and 160 nM on benzodiazepine receptor (obtained on reevaluation, read-out: ^3 H-Flu binding IC50 (reevaluation)). Besides, the “% of Time in Lit Area, Compound” value with mouse [1] (dose 0.01 mg/kg) is listed as 35%; in the data set with mouse [1] (dose 0.1 mg/kg) it was 37%; with mouse [1] (dose 3.16 mg/kg) it was 49%; in the data set with mouse [1] (dose 5.62 mg/kg), 49%; in the data set on mouse [1] (dose 10.0 mg/kg) it was 40%. Also, the “% of Time in Lit Area, Compound (additional result)” value in the data set with mouse [1] (dose 10 mg/kg, additional result in footnote) is 38%. The “sedation, Compound” value in the data set on mouse [1] (mouse, in vivo, 17.8 mg/kg) is on record as “sedation”. This molecule came in with an ED50 in the data set with adult female mice [4] of 8.6 mg/kg.
Regarding `Cc1c[nH]c(Cn2c(-c3ccc(Cl)cc3)nc3cccnc32)n1` [Example 11, 2-(4-Chlorophenyl)-3-(4-methyl-1H-imidazol-2-ylmethyl)-3H-imidazo[4,5-b]pyridine], in the data set on mouse [2] (dose 100 mg/kg), the “% Loss of Righting Reflex” value was 0%. For the same molecule, at benzodiazepine receptor (setting [5]), the IC50 stood at 390 nM. Besides, the “% of Time in Lit Area, Compound” value in the data set with mouse [1] (dose 1.0 mg/kg) turned out to be 38%; in the data set on mouse [1] (dose 3.16 mg/kg), 40%; in the data set with mouse [1] (dose 10.0 mg/kg) it was 40%; in the data set on mouse [1] (dose 31.6 mg/kg) it was 53%. Also, the responders at 100 mg/kg in the data set on adult female mice [3] came to 0%. Moreover, the ED50 in the data set on adult female mice [4] was determined as 16.8 mg/kg.
Consider `Cc1ccc(-c2nc3cccnc3n2Cc2nc(C)c[nH]2)cc1` [Example 12], for which, in the data set on mouse [2] (dose 100 mg/kg), the “% Loss of Righting Reflex” value came out at 0%. Also, the IC50 on benzodiazepine receptor (setting [5]) is 220 nM. The “% of Time in Lit Area, Compound” value with mouse [1] (dose 1.0 mg/kg) was 38%; in the data set with mouse [1] (dose 3.16 mg/kg), 40%; in the data set on mouse [1] (dose 10.0 mg/kg) it was 51%; in the data set with mouse [1] (dose 31.6 mg/kg), 48%. Further, in the data set on adult female mice [3], the responders at 100 mg/kg was found to be 0%. This molecule also gave an ED50 in the data set on adult female mice [4] of 14.8 mg/kg.

The values above are taken from patent US5066654A, “2-aryl-3-heterocyclicmethyl-3H-imidazo[4,5-b]pyridines as anxiolytics and anticonvulsants” (A. H. Robins Company, Incorporated, priority 1990, dated 1991).
